Experiments:
PBMCs [1] = details: cited from earlier work
Procedure: (§1) The human cathelicidin LL-37 has been previously shown to have a toxic effect on PBMCs at the concentration of 12 µM [20].

[2] = tested on: Caco-2 cells in a monolayer; assay: Cytotoxicity assay, resazurin method, Caco-2 cells in a monolayer; assay type: cell-based, human; details: Caco-2 monolayer, peptide 0.8 µM, 24 h
Procedure: (§2) The cytotoxic effects of the tobacco defensin NaD1 towards PBMCs or Caco-2 cells were investigated in 96-well plates using the resazurin method as previously described. In brief, 4 × 10^5 per well Caco-2 cells not in a monolayer as well as Caco-2 cells in a monolayer in DMEM/F12 (1:1) medium with 10% FBS or 2 × 10^6 PBMCs per well in RPMI-1640 also with 10% FBS were incubated with serial dilutions of NaD1 at final concentrations from 0.39 to 50 μM or from 2.1 to 180 μM for 24 h. After that, resazurin (Sigma, St. Louis, MO, USA) was added at a final concentration of 70 µM and the plates were incubated overnight (16–18 h). Untreated cells and cells treated by non-ionogenic detergent Triton X-100 were used as negative and positive controls, respectively. […] The cell viability was estimated by resorufin fluorescence registered at […] via the following equation: cell viability (%) = (Fsample/Fcontrol) × 100%. Experiment was carried out twice in duplicate.

PBMCs [3] = assay: Cytotoxicity assay, resazurin method, PBMCs; assay type: cell-based, human; details: PBMCs, peptide 2.5 µM, 24 h, resazurin
Excerpt: Peripheral blood mononuclear cells (PBMCs) from healthy donors were purchased from American Type Culture Collection (ATCC PCS-800-011). Primary monocytes were isolated from PBMCs by adherence to the plastic surface. For that, PBMCs were thawed, resuspended in RPMI-1640 culture medium (Corning, Corning, NY, USA) without serum at a concentration of 2 × 10^6 cells/mL, seeded into the wells of a 24-well plate and placed in a humidified CO2-intubator (CellXpert C170i, Eppendorf, Hamburg, Germany) for 1 h. After that, non-adherent cells were removed from the wells and attached monocytes were thoroughly washed with PBS and cultured in a CO2-intubator in complete RPMI-1640 containing 10% human serum (HS Type AB, Capricorn Scientific, Ebsdorfergrund, Germany) and 1×antibiotic-antimycotic (1×AA) solution (Sigma, St. Louis, MO, USA).
as §2

THP-1 cells = details: peptide 1.2 µM; cited from earlier work
Procedure: as §1

[4] = tested on: THP-1-derived macrophages; assay: ELISA assay of cytokine production by THP-1-derived macrophages; assay type: cell-based, human
Procedure: THP-1 (ATCC TIB-202) cells were thawed and cultured in complete RPMI-1640, containing 10% FBS (Capricorn Scientific) and 1×AA solution in CO2-intubator. Monocytic THP-1 cells were differentiated into resting M0 macrophages by stimulation for 24 h with 100 ng/mL phorbol 12-myristate 13-acetate (PMA) in complete RPMI-1640. Then, the attached macrophage-like cells were washed out with culture medium without serum and incubated for another 48 h in PMA-free complete culture medium with 10% HS and 1×AA solution.
THP-1-derived macrophages were seeded into the wells of a 24-well plate at a density of 2.7 × 10^5 cells/well in complete RPMI-1640 with 10% HS and 1×AA solution. Then, 24 h later, the culture medium was replaced by the fresh complete RPMI-1640 containing lipopolysaccharide from Escherichia coli 0111:B4 (LPS, Sigma, St. Louis, MO, USA) or zymosan from the cell wall of Saccharomyces cerevisiae (Serva, Heidelberg, Germany) at concentrations of 1 or 10 μg/mL, respectively; antimicrobial peptides NaD1, Psd1, LL-37 or HBD2 at concentrations of 2 or 0.2 µM; and combinations of antimicrobial peptides with LPS or zymosan at the same concentrations. Insoluble zymosan was resuspended in sterile water and sonicated twice for 30 s; after that, the stock solution was heated to 80 °C for 20 min. Peptides were added 2 h before stimulation with LPS and zymosan. After that, PAMPs solutions were added and the cells were cultured for 24 h. Complete RPMI-1640 only was used in the control wells. Culture supernatants were collected and stored at −70 °C prior to the cytokines’ assessment.
The production of pro- and anti-inflammatory cytokines IL-1β, IL-6, TNF-α and IL-10 by stimulated and non-stimulated THP-1-derived macrophages were estimated by using ELISA kits (Vector-Best, Koltsovo, Russia). Briefly, 96-well plates with adsorbed monoclonal antibodies to the corresponding cytokine were used. Undiluted or diluted 5, 20 or 80 times in the case of IL-10, TNF-α and IL-1β or IL-6, respectively, culture supernatants from the wells of 24-well plates were taken for analysis. Biotinylated polyclonal antibodies to cytokines, streptavidin conjugated to HRP and TMB substrate were further used for the detection of immune complexes. A panel of calibration solutions containing different concentrations of cytokines was used in each experiment. Experiments were performed using two biological and two technical repeats. The release of the cytokines in the control and experimental samples was compared with an unpaired two-sample t-test using GraphPad Prism v.8.0.1 (GraphPad Software, Inc., San Diego, CA, USA). The p values ≤ 0.05 were considered significant.

[5] = tested on: Caco-2 polarized monolayer; details: cited from earlier work
primary monocytes = details: cited from earlier work
Excerpt: Then, primary human monocytes were chosen to study the immunomodulatory properties of NaD1. Monocytes circulating in the blood can be recruited and extravasated into tissues during inflammatory processes. Moreover, the recruitment of monocytes to the sites of inflammation is critical for host defense not only when infected, but also in the case of sterile injury. In the case of monocytes, NaD1 at the same concentration induced a decrease of chemotactic CXCL1/GROα and CXCL8/IL-8 levels and elevation of the fibroblast growth factor 2 (FGF-2) production; however, these changes were ...

mature DCs = details: previous study; cited from earlier work
Excerpt: In the next step of this work, we studied the immunomodulatory properties of NaD1 by using primary monocytes and monocyte-derived immature dendritic cells (DCs). DCs represent a type of antigen-presenting cells, playing a key role in adaptive immune response. Their primary functions involve phagocytosis, processing and presentation of captured antigens to T cells. In most tissues, they are present in a state known as “immature” DCs, unable to activate and stimulate T lymphocytes; their activation and maturation typically starts when DCs identify danger signals. This is why immature DCs ...

[6] = peptide 2 µM 2 h before LPS 1 μg/mL, 24 h, vs LPS alone
[7] = peptide 2 µM 2 h before zymosan 10 μg/mL, 24 h, vs zymosan alone

With CC[C@H](C)[C@H](NC(=O)[C@H](CCCCN)NC(=O)[C@H](CCC(=O)O)NC(=O)[C@H](CCCCN)NC(=O)[C@H](CO)NC(=O)[C@H](CCCCN)NC(=O)[C@H](CCCNC(=N)N)NC(=O)[C@H](Cc1ccccc1)NC(=O)[C@H](Cc1ccccc1)NC(=O)[C@H](CC(=O)O)NC(=O)CNC(=O)[C@H](CC(C)C)NC(=O)[C@@H](N)CC(C)C)C(=O)NCC(=O)N[C@@H](CCCCN)C(=O)N[C@@H](CCC(=O)O)C(=O)N[C@@H](Cc1ccccc1)C(=O)N[C@@H](CCCCN)C(=O)N[C@@H](CCCNC(=N)N)C(=O)N[C@H](C(=O)N[C@H](C(=O)N[C@@H](CCC(N)=O)C(=O)N[C@@H](CCCNC(=N)N)C(=O)N[C@H](C(=O)N[C@@H](CCCCN)C(=O)N[C@@H](CC(=O)O)C(=O)N[C@@H](Cc1ccccc1)C(=O)N[C@@H](CC(C)C)C(=O)N[C@@H](CCCNC(=N)N)C(=O)N[C@@H](CC(N)=O)C(=O)N[C@@H](CC(C)C)C(=O)N[C@H](C(=O)N1CCC[C@H]1C(=O)N[C@@H](CCCNC(=N)N)C(=O)N[C@H](C(=O)N[C@@H](CCC(=O)O)C(=O)N[C@@H](CO)C(=O)O)[C@@H](C)O)C(C)C)[C@@H](C)CC)C(C)C)[C@@H](C)CC [LL-37] as the compound, how does the “Toxic effect on PBMCs” value (PBMCs [1]; peptide 12 µM) read?
Its value is “toxic effect”.

Which Cell viability [2] does the source give for CC[C@H](C)[C@H](NC(=O)CN)C(=O)NCC(=O)N[C@@H](C)C(=O)N[C@H](C(=O)N[C@@H](CC(C)C)C(=O)N[C@@H](CCCCN)C(=O)N[C@H](C(=O)N[C@@H](CC(C)C)C(=O)N[C@H](C(=O)N[C@H](C(=O)NCC(=O)N[C@@H](CC(C)C)C(=O)N1CCC[C@H]1C(=O)N[C@@H](C)C(=O)N[C@@H](CC(C)C)C(=O)N[C@H](C(=O)N[C@@H](CO)C(=O)N[C@@H](Cc1c[nH]c2ccccc12)C(=O)N[C@H](C(=O)N[C@@H](CCCCN)C(=O)N[C@@H](CCCNC(=N)N)C(=O)N[C@@H](CCCCN)C(=O)N[C@@H](CCCNC(=N)N)C(=O)N[C@@H](CCC(N)=O)C(=O)N[C@@H](CCC(N)=O)C(N)=O)[C@@H](C)CC)[C@@H](C)CC)[C@@H](C)O)[C@@H](C)O)C(C)C)C(C)C [melittin, reference compound] here?
Its Cell viability is “a decrease in cell viability was observed”.

What about the Cell death (PBMCs [3]) of the same compound?
The Cell death was “approximately 50%”.

What does the source list for “HBD2: Recombinant human β-defensin 2 (UNIPROT O15263), expressed in E. coli (GIGDPVTCLKSGAICHPVFCPRRYKQIGTCGLPGTKCCKKP; UniProt O15263 24-64, looked up) [reference compound]”?
Level of THP-1 cell death (THP-1 cells): did not increase the level of THP-1 cell death; LPS-induced IL-6 production [4, 6]: increased the LPS-stimulated production of IL-6; Zymosan-induced IL-6 production [4, 7]: slight decrease in the zymosan-induced production of IL-6

Which “Papp A→B compared with NaD1” value ([5]; Psd1 value from earlier work) does the source give for “Psd1: Pea defensin Psd1 (UNIPROT P81929), obtained as described previously (KTCEHLADTYRGVCFTNASCDDHCKNKAHLISGTCHNWKCFCTQNC; UniProt P81929 1-46, looked up) [reference compound]” here?
Its value is “nearly the same”.

And the “Papp, secretory versus absorptive direction” value [5]?
Its value is “apparent permeability coefficients were higher in the secretory direction than in the absorptive one”.

What about the “Production of chemokines by monocytes” value (primary monocytes) of the same compound?
Its value is “increased the production of both CCL3/MIP-1α and CCL4/MIP-1β”.

And the “Cytotoxic activity against PBMCs” value (PBMCs [1]; peptide 50 µM)?
Its value is “no cytotoxic activity”.

What about the “LPS-induced IL-6 production” value [4, 6] of the same compound?
The value was “increased the LPS-stimulated production of IL-6”.

And the “LPS-induced IL-10 production” value [4, 6]?
The value was “increased the LPS-induced production of IL-10”.

What about the “LPS-induced TNF-α secretion” value [4, 6] of the same compound?
The value was “reduced the LPS-induced secretion of TNF-α”.

And the “IL-1β production in the presence of zymosan” value [4, 7]?
The value was “slightly reduced the production of IL-1β”.

And the “IL-10 production in the presence of zymosan” value [4, 7]?
Its value is “increased the production of IL-10 in the presence of zymosan”.

And the “IL-10 production, unstimulated macrophages” value ([4]; peptide 2 µM alone, vs unstimulated control)?
Its value is “induced the production of IL-10”.

And the “Production of cytokines and chemokines by mature DCs” value (mature DCs)?
The value was “induced an elevation of the production of cytokines IL-1RA, IL-5, IL-6, IL-10, IL-12, IL-15, IL-27 and TNFα and chemokines CXCL8/IL-8, CCL2/MCP-1 and CCL7/MCP-3”.

— article PMC11591356, “Immunomodulatory Effects of the Tobacco Defensin NaD1” (Antibiotics, 2024)
